This note sets out measurements from patent US20060251714A1, “Pharmaceutical formulations of amyloid inhibiting compounds” (priority 2005, published 2006).

Data set [1] is described as follows: Example 13: single 150 mg dose of Modified-Release Coated Tablets in healthy elderly male volunteers, plasma pharmacokinetics. The class given is in vivo. The note with it: human, single oral 150 mg (3 × 50 mg Table 5 tablets), elderly male subjects; for AUC(0-inf) / Cmax / AUC(0-t): male, po, 150 mg; for AUC(0-t): read-out: AUC0-Tlast. The protocol:
In the following examples and elsewhere herein, terms are as defined below. The pharmacokinetic parameters were derived by non-compartmental analysis using WinNonlin® (Pharsight Corporation, Mountain View, Calif.) or SAS® for Windows® (SAS Institute Inc., Cary, N.C.).
For the 150 mg dose, three 50 mg tables are administered.

Data set [2] is described as follows: Example 10: 3-APS concentration in cerebrospinal fluid of AD patients. The class given is in vivo. The note with it: human. The text has this:
A multicenter, randomized, double-blind, placebo-controlled and parallel designed study is made with 3-APS in the formulation described in Table 5 above in patients suffering from mild to moderate Alzheimer's Disease (AD). An objective of this study is to assess the safety and tolerability of 3-APS and to assess its pharmacokinetics in AD patients. A total of fifty-eight (58) mild to moderate AD patients (MMSE scores=13 to 26) are enrolled from 6 centers in the United States. Patients are randomized to receive in 1:1:1:1 ratio of NC-758-1 at 50, 100, 150 mg BID or placebo BID for 12 weeks. Study medication is administered orally (tablet). For doses at multiples of 50 mg, multiple 50 mg tables are administered. Each patient is evaluated on 6 occasions at screening, baseline [Week 0], weeks 2, 4, 8 and 12. Blood samples are collected from each patient prior to dosing and at specified time points through 12 h post-dose after the first dose (Week 0) and the last dose (Week 12). Blood samples are also collected prior to the first dose of the day during Week 2, 4 and 8 visits.
(Patients having a CSF level below the lower limit of quantitation of the assay are considered as zero.) CSF concentrations of 3-APS on Day 2 of Week 12 after twice daily oral administration for 12 weeks are as follows: […]

A short description of data set [3]: Example 12: 3-APS concentration in cerebrospinal fluid of CAA patients. The class given is in vivo. The note with it: human, oral, 5 hours post-dose on Week 12, range of means, CSF samples from five patients, some below lower limit of quantitation, read-out: mean concentrations of 3-APS in the cerebrospinal fluid (CSF). The method, then: A total of 24 patients who have had lobar cerebral hemorrhage are randomized to receive in a 1:1:1 ratio 3-APS 50, 100 or 150 mg BID for 12 weeks. A lumbar puncture is performed on an optional basis at Weeks 0 and 12 to assess the pharmacological effect of 3-APS on Aβ40, Aβ42 and tau concentrations in cerebrospinal fluid (CSF) and to measure the drug concentration in the CSF. Rating instruments (NIHSS, Barthel Index, ADAS-cog and EXIT25) are administered at Weeks 0 and 12 to evaluate the neurological and cognitive functions as well as the daily functioning.
For pharmacokinetic investigations, blood samples are collected from each patient prior to dosing and at specified time points through 12 h post-dose after the first dose (Week 0) and the last dose (Week 12). Blood samples are also collected prior to the first dose of the day during Week 2, 4 and 8 visits. CSF samples are obtained by lumbar puncture prior to dosing on Week 0 and approximately 5 hours post-dose on Week 12.
The mean concentrations of 3-APS in the cerebrospinal fluid (CSF) 5 hours post-dose on Week 12 range from 3.28 to 4.10 ng/mL confirming that the central nervous system is exposed to the drug.

Data set [4] has as its system mild to moderate AD patients. The data set is described as follows: Example 11: open-label extension in AD patients, psychometric tests (ADAS-cog, CDR). The class given is in vivo, human. The settings on record: for average CDR score (change): after 20 months total on study medication, reported 12-month mean change +1.4 to 2.2 points in comparable patients. The text has this: The ADAS-cog test is described in […] Annals of Neurology 23:477-484, which is incorporated herein by reference. It is a validated scale developed specifically as a research instrument to evaluate the severity of cognitive deficits characteristic of patients with AD. This test can usually be administered to participants in less than one hour. The ADAS-cog ranges from 0 to 70 points, with higher scores indicating a greater degree of cognitive impairment. Improved performance can be measured in patients treated with formulations of the invention compared to placebo-treated patients at various time intervals. Improvement can be measured by detecting an improved score in the treated patients compared to untreated controls after 6 months, preferably 12 months, more preferably 18 months or longer. […] Patients with Alzheimer's disease typically show an annual increase in ADAS-cog scores of from about 4-9. An improvement would provide for a lessening in the increase compared to untreated controls, for example, an annual increase of less than about 5 points or 4 points, preferably 3 points, more preferably 2 points or 1 point or even a stabilization or decrease in the score.
The CDR is described in Morris, J (1993) Neurology 43: 2412-2414, which is incorporated herein by reference. Further to the discussion of the CDR test below, it is a global rating scale of dementia that is derived from ratings of impairment assigned by an independent rater in six domains, after approximately a 90-minute interview of the caregiver and participant (Hughes C P, Berg L, Danziger W L, et al. A New Clinical Scale for the Staging of Dementia. Brit. J. Psychiat 1982; 140: 566-572). The CDR scale is from 0-18 with a higher score indicating a worsening impairment. Impairment in each of the six domains is rated as “none” (O), “questionable” (0.5), “mild” (1), “moderate” (2) or “severe” (3). Improvement can be measured by detecting a lower score in the treated patients compared to controls after 6 months, preferably 12 months, more preferably 18 months or longer. […] Patients with Alzheimer's disease typically show an annual increase in CDR scores of from about 1-3. An improvement would provide for an annual increase of less than about 3 points or 2 points, preferably 1 point, more preferably 0.5 points or 0.25 points or even an improvement (reduction) in the score.
The patients from the clinical studies in Example 10 are offered 3-APS (formulation of Table 5 above) at 150 mg BID for an additional 17 months (thus, 20 months total) in an open-label study. For doses at multiples of 50 mg, multiple 50 mg tables are administered. Twenty-four mild to moderate AD patients complete the study. Psychometric tests (ADAS-cog) are performed at each visit, that is every 3 months for the first 9 months and every 4 months for the last […]. Overall, approximately 70% of the mild AD patients show stabilized or improved cognitive function tests after 20 months.

The mark [5] stands for this setting: Fasting Conditions, n = 11, mean.

SMILES strings stand for the structures. Like-named read-outs stand apart in the source and are kept apart here.

In the case of `NCCCS(=O)(=O)O` [3-APS, 3-amino-1-propanesulfonic acid], in data set [1] (Fed Conditions, n = 10, median), the Tmax (in general, the time at which the peak concentration occurs) was determined as 5.5 h. The total exposure AUC(0-inf) (as a rule, the area under the concentration-time curve extrapolated to infinity) was determined as 3280 ng·h/mL in data set [1] (setting [5]) and 5310 ng·h/mL in data set [1] (Fed Conditions, n = 10, mean). The Cmax – broadly, the highest concentration seen after dosing – in data set [1] (setting [5]) is 772 ng/mL; in data set [1] (Fed Conditions, n = 10, mean), 980 ng/mL. Besides, the AUC(0-t) in data set [1] (setting [5]) amounted to 3210 ng·h/mL; in data set [1] (Fed Conditions, n = 10, mean), 5160 ng·h/mL. Also, the concentration at 5 h in data set [2] (dose 50 mg twice daily oral for 12 weeks, Day 2 of Week 12, read-out: CSF concentration with mean ± standard deviation) is 1.07 ± 1.8 ng/mL; in data set [2] (dose 100 mg twice daily oral for 12 weeks, Day 2 of Week 12, read-out: CSF concentration with mean ± standard deviation), 4.36 ± 2.66 ng/mL; in data set [2] (dose 150 mg twice daily oral for 12 weeks, Day 2 of Week 12, read-out: CSF concentration with mean ± standard deviation), 3.87 ± 2.74 ng/mL; in data set [2] (oral, 5 hours post-dose on Week 12, range of means across dose groups, levels below lower limit of quantitation considered as zero, read-out: mean concentrations of 3-APS in the cerebrospinal fluid (CSF)) it was 2.61 to 7.33 ng/mL; in data set [3] it was 3.28 to 4.1 ng/mL. Moreover, the “mild AD patients showing stabilized or improved cognitive function tests” value in data set [4] (150 mg BID open-label (Table 5 tablet), after 20 months) was “approximately 70%”. For the same molecule, in data set [4] (mild AD patients (n=13), 150 mg BID open-label, 20 months, comparable historical controls +8.6 points), the “change from baseline in average ADAS-cog score” value is recorded as “+3.5 points”. The “average CDR score (change)” value in data set [4] (mild AD patients) is “+2.36 points”; in data set [4] (moderate AD patients), 2.77 points. In data set [4] (mild to moderate AD patients (n=24), 150 mg BID open-label, 20 months, comparable historical controls +10.3 points), the “average ADAS-cog score (change)” value is listed as “+7.8 points”.
